For one test, the target named is MNK1 (Homo sapiens, UniProt Q9BUB5). As to the kind of experiment: In vitro MNK kinase assay (Caliper LabChip mobility shift). Type of test: biochemical. To be noted: enzymatic, 1.2 mM ATP; read-out: IC50 Mnk1.
For a further test, the target named is MNK2 (Homo sapiens (Human), UniProt Q9HBH9). The description is as above. To be noted: enzymatic, 250 μM ATP; read-out: IC50 Mnk2. Type of test: biochemical.
Sequence of MNK2 (Q9HBH9 84-388): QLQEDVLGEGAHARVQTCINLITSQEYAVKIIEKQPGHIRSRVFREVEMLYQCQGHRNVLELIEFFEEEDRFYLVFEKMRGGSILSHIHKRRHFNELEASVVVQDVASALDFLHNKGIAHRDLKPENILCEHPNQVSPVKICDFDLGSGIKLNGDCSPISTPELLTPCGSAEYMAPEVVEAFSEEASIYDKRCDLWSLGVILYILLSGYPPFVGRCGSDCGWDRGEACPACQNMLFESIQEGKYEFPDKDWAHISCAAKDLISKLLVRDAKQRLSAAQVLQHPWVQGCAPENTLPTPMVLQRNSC

As for `N#Cc1ccc(-c2cnc3ccc(-c4ccc(C(=O)N5CCC(CCN)CC5)cc4)cn23)cc1` [Example 124, 4-(6-(4-(4-(2-aminoethyl)piperidine-1-carbonyl)phenyl)imidazo[1,2-a]pyridin-3-yl)benzonitrile], the IC50 at MNK1 and at MNK2 was < 0.1 µM throughout.

In the case of `COC1(C)CCN(C(=O)c2ccc(-c3ccc4ncc(-c5ccc(C#N)cc5)n4c3)cc2)CC1` [Example 172, 4-(6-(4-(4-methoxy-4-methylpiperidine-1-carbonyl)phenyl)imidazo[1,2-a]pyridin-3-yl)benzonitrile], the IC50 at MNK1 and at MNK2 was < 0.1 µM in each case.

For `CN1CCN(C(=O)c2ccc(-c3ccc4ncc(-c5ccc(C#N)cc5)n4c3)c(Cl)c2)CC1` [Example 153], the concentration for half-maximal inhibition (IC50) at MNK1 and at MNK2 was < 1 µM in each case.

Turning to `N#Cc1ccc(-c2cnc3ccc(-c4ccc(C(=O)N5CCCOCC5)cc4)nn23)cc1` [Example 64, 4-(6-(4-(1,4-oxazepane-4-carbonyl)phenyl)imidazo[1,2-b]pyridazin-3-yl)benzonitrile], the IC50 on MNK1 and on MNK2 was < 0.1 µM each time.

Take `N#Cc1ccc(-c2cnc3ccc(-c4ccc(C(=O)N5CCOCC5)c(F)c4)cn23)cc1` [Example 162, 4-(6-(3-fluoro-4-(morpholine-4-carbonyl)phenyl)imidazo[1,2-a]pyridin-3-yl)benzonitrile]: the half-maximal inhibitory concentration (IC50) at MNK1 and at MNK2 was < 1 µM each time.

`CC(C)(C)N1CCN(C(=O)c2ccc(-c3cn4c(-c5ccc(C(N)=O)cc5)cnc4cn3)cc2)CC1` [Example 5, 4-(6-(4-(4-tert-butylpiperazine-1-carbonyl)phenyl)imidazo[1,2-a]pyrazin-3-yl)benzamide]: the IC50 at MNK1 and on MNK2 was < 0.1 µM in each case.

With `CN1CCN(C2(C)CCN(C(=O)c3ccc(-c4ccc5ncc(-c6ccc(C#N)cc6)n5c4)cc3)CC2)CC1` [Example 164, 4-(6-(4-(4-methyl-4-(4-methylpiperazin-1-yl)piperidine-1-carbonyl)phenyl)imidazo[1,2-a]pyridin-3-0)benzonitrile], the half-inhibitory concentration (IC50) on MNK1 and on MNK2 was < 0.1 µM in each case.

Consider `N#Cc1ccc(-c2cnc3ccc(-c4ccc(C(=O)N5CCNC(=O)C5)cc4)nn23)cc1` [Example 68, 4-(6-(4-(3-oxopiperazine-1-carbonyl)phenyl)imidazo[1,2-b]pyridazin-3-yl)benzonitrile], for which the half-inhibitory concentration (IC50) on MNK1 and on MNK2 was < 0.1 µM in each case.

For `CN1CCN(C(=O)c2ccc(-c3ccc4ncc(-c5ccc(C#N)cc5)n4c3)cc2OC(F)(F)F)CC1` [Example 157], the 50% inhibitory concentration (IC50) on MNK1 and on MNK2 was < 1 µM each time.

Turning to `CN1CCN(C(=O)c2ccc(-c3ccc4ncc(-c5ccc(C#N)cc5)n4n3)cc2)CC1=O` [Example 69, 4-(6-(4-(4-methyl-3-oxopiperazine-1-carbonyl)phenyl)imidazo[1,2-b]pyridazin-3-yl)benzonitrile], the IC50 on MNK1 and at MNK2 was < 0.1 µM in each case.

As for `CN1CCN(C(=O)c2ccc(-c3ccc4ncc(-c5ccc(C#N)cc5)n4c3)cc2N)CC1` [Example 146, 4-(6-(3-amino-4-(4-methylpiperazine-1-carbonyl)phenyl)imidazo[1,2-a]pyridin-3-yl)benzonitrile], the IC50 at MNK1 and on MNK2 was < 0.1 µM each time.

With `CN(C)C1CCN(C(=O)c2ccc(-c3ccc4ncc(-c5ccc(C#N)cc5)n4c3)cc2)CC1` [Example 112, 4-(6-(4-(4-(dimethylamino)piperidine-1-carbonyl)phenyl)imidazo[1,2-a]pyridin-3-yl)benzonitrile], the half-maximal inhibitory concentration (IC50) on MNK1 and at MNK2 was < 0.1 µM in each case.

On to `CN1CCN(C2CCN(C(=O)c3ccc(-c4ccc5ncc(-c6ccc7c(c6)CC(=O)N7)n5n4)cc3)CC2)CC1` [Example 89, 5-(6-(4-(4-(4-methylpiperazin-1-yl)piperidine-1-carbonyl)phenyl)imidazol[1,2-b]pyridazin-3-yl)indolin-2-one], for which the half-inhibitory concentration (IC50) at MNK1 and at MNK2 was < 0.1 µM throughout.

Consider `O=C1CCN(C(=O)c2ccc(-c3cn4c(-c5ccc(Cl)cc5)cnc4cn3)cc2)CC1` [Example 43, 1-(4-(3-(4-chlorophenyl)imidazo[1,2-a]pyrazin-6-yl)benzoyl)piperidin-4-one], for which the 50% inhibitory concentration (IC50) at MNK1 and on MNK2 was < 1 µM each time.

As for `CN1CCN(C(=O)c2ccc(-c3cn4c(-c5ccc(Cl)cc5)cnc4cn3)cc2)CC1` [Example 41, (4-(3-(4-chlorophenyl)imidazo[1,2-a]pyrazin-6-yl)phenyl)(4-methylpiperazin-1-yl)methanone], the IC50 at MNK1 and at MNK2 was < 1 µM each time.

Take `CC(=O)NC1CCN(C(=O)c2ccc(-c3ccn4ncc(-c5ccc(C#N)cc5)c4n3)cc2)CC1` [Example 186, N-(1-(4-(3-(4-cyanophenyl)pyrazolo[1,5-a]pyrimidin-5-yl)benzoyl)piperidin-4-yl)acetamide]: the half-maximal inhibitory concentration (IC50) on MNK1 and at MNK2 was < 0.1 µM throughout.

Regarding `N#Cc1ccc(-c2cnc3ccc(-c4ccc(C(=O)N5CCN(C(=O)c6ccccc6)CC5)cc4)cn23)cc1` [Example 126, 4-(6-(4-(4-benzoylpiperazine-1-carbonyl)phenyl)imidazo[1,2-a]pyridin-3-yl)benzonitrile], the IC50 at MNK1 and on MNK2 was < 0.1 µM in each case.

Take `CCN1CCN(C(=O)c2ccc(-c3cn4c(-c5ccc(Cl)cc5)cnc4cn3)cc2)CC1` [Example 45, (4-(3-(4-chlorophenyl)imidazo[1,2-a]pyrazin-6-yl)phenyl)(4-ethylpiperazin-1-yl)methanone]: the IC50 on MNK1 and on MNK2 was < 1 µM in each case.

Consider `N#Cc1ccc(-c2cnn3ccc(-c4ccc(C(=O)N5CCCOCC5)cc4)nc23)cc1` [Example 181, 4-(5-(4-(1,4-oxazepane-4-carbonyl)phenyl)pyrazolo[1,5-a]pyrimidin-3-yl)benzonitrile], for which the IC50 on MNK1 and at MNK2 was < 0.1 µM throughout.

For the compound `CN1CCN(C2CCN(C(=O)c3ccc(-c4ccc5ncc(-c6ccc(C#N)cc6)n5n4)cc3)CC2)CC1` [Example 70, 4-(6-(4-(4-(4-methylpiperazin-1-yl)piperidine-1-carbonyl)phenyl)imidazo[1,2-b]pyridazin-3-yl)benzonitrile], the IC50 on MNK1 and at MNK2 was < 0.1 µM each time.

Take `N#Cc1ccc(-c2cnn3ccc(-c4ccc(C(=O)N5CCNCC5)cc4)nc23)cc1` [Example 183, 4-(5-(4-(piperazine-1-carbonyl)phenyl)pyrazolo[1,5-a]pyrimidin-3-yl)benzonitrile]: the half-inhibitory concentration (IC50) on MNK1 and at MNK2 was < 0.1 µM in each case.

As to `CCN(CC)C1(C)CCN(C(=O)c2ccc(-c3ccc4ncc(-c5ccc(C#N)cc5)n4c3)cc2)CC1` [Example 100, 4-(6-(4-(4-(diethylamino)-4-methylpiperidine-1-carbonyl)phenyl)imidazo[1,2-a]pyridin-3-yl)benzonitrile], the IC50 at MNK1 and on MNK2 was < 0.1 µM each time.

For the compound `NC1CCN(C(=O)c2ccc(-c3ccc4ncc(-c5ccc(Cl)cc5)n4c3)cc2)CC1` [Example 174, (4-aminopiperidin-1-yl)(4-(3-(4-chlorophenyl)imidazo[1,2-a]pyridin-6-yl)phenyl)methanone], the concentration for half-maximal inhibition (IC50) on MNK1 and at MNK2 was < 0.1 µM throughout.

These data come from patent US9908886B2 (Agency for Science, Technology and Research, priority 2012, dated 2018).
